Laboratory results reported in US11040937B2, “Amide derivative” (TOHOKU UNIVERSITY, priority 2014, dated 2021).

System: A549/OPNluc cells
Experiment: WST assay for cell growth / cell viability
Format: cell-based, human
Settings: Homo sapiens, A549, A549/OPNluc cells, 48±4 hours, WST-1; read-out: IC50 (concentration for 50% inhibition of cell growth)
Description: A reporter vector pOPN1-luc obtained by the insertion of a human OPN promoter sequence (−765 to 23) into the multiple cloning site of pGL-3 basic vector (Promega) expresses luciferase when transfected into animal cells. The pOPN1-luc was transfected into a human non-small cell lung cancer-derived cell line A549 together with pPUR (Clontech) that expresses a puromycin resistance gene (puromycin-N-acetyl-transferase gene), and then cells expressing luciferase which could grow a puromycin-supplemented medium were selected. The selected cells were named “A549/OPNluc cells” and used for observation of luciferase expression inhibitory effect under control of OPN promoter, as described below.
A test compound was added to a culture containing A549/OPNluc cells to observe its influence on the amount of luciferase expressed in the cells. Here, it can be considered that when the test compound has a cell cytotoxity or cell growth inhibitory effect, the total expression level of luciferase is reduced due to a reduction in the number of living cells that depends on the concentration of the test compound, and therefore the luciferase expression inhibitory effect of the test compound under control of OPN promoter cannot be properly evaluated. For this reason, WST assay for quantification of cell proliferation ability or cell viability by colorimetric measurement was firstly performed to determine IC50 (concentration for 50% inhibition of cell growth) of the test compound for cell growth. Then, luciferase activity measurement was performed to determine EC50 (concentration for 50% inhibition of luciferase expression) of the test compound for luciferase expression under control of OPN promoter.
A549/OPNluc cells were suspended in DMEM medium containing 10% fetal calf serum (FCS) and 1% penicillin/streptomycin (P/S) at 3×10^4 cells/mL to obtain a cell suspension, and then the cell suspension was dispensed into each well of a 96-well plate in an amount of 100 μL. In order to perform the assay in triplicate, wells were prepared for a control group, and 3 wells were prepared for each test compound-treated group at each concentration. After the dispensation, the 96-well plate was incubated in a CO2 incubator (at 37° C. and 5% CO2) for 24±4 hours.
The present compound was dissolved in dimethylsulfoxide (DMSO) to obtain a 50 mmol/L solution, and the compound solution was stored at −80° C. The compound solution was diluted with DMSO in 2-fold dilution series (usually, in the range of 0.31 mmol/L to 20 mmol/L) to prepare test compound solutions whose concentration varied by two fold for WST assay.
Each solution of only DMSO (control) and the diluted test compound (sample) was dispensed into each well containing the cell suspension in an amount of 0.5 μL (200-fold dilution). The solution in each well was mixed with a vortex mixer, and then the 96-well plate was incubated in a CO2 incubator (at 37° C. and 5% CO2) for 48±4 hours. Then, Premix WST-1 Reagent (TAKARA BIO INC.) was added in an amount of 10 μL to each well. The solution in each well was mixed with a vortex mixer, and then the 96-well plate was incubated at 37° C. and 5% CO2. After 60 minutes or 120 minutes, the absorbance values (450 nm) were measured with a microplate reader (Bio-Rad; Benchmark or Thermo Scientific; Varioskan Flash).
The absorbance values of the control wells and the sample wells at each concentration were input into an Excel file to determine the percentages of absorbance values of the sample wells at each concentration with to the average absorbance value of the control wells. From the determined values, a fitted curve was determined by the method of least squares to calculate IC50.

| Compound | IC50 [µM] |
| --- | --- |
| O=C(CCNC(=O)c1ccc(O)cc1)Nc1cccc(Oc2ccc(Cl)c(Cl)c2)c1 [Compound 38, N-(3-(3-(3,4-dichlorophenoxy)phenylamino)-3-oxopropyl)-4-hydroxybenzamide] | 17.3 |
| COc1ccc(Oc2cccc(NC(=O)CCNC(=O)c3ccc(O)cc3)c2)cc1 [Compound 26, N-(3-(3-(4-Methoxyphenoxy)phenylamino)-3-oxopropyl)-4-hydroxybenzamide] | 86.2 |
| Nc1ccc(C(=O)NCCC(=O)c2cccc(Oc3ccc(Cl)cc3)c2N)cc1 [Compound 19, N-(3-(2-Amino-3-(4-chlorophenoxy)phenyl)-3-oxopropyl)-4-aminobenzamide] | > 100 |
| COc1ccc(Oc2cccc(C(=O)CCNC(=O)c3ccc(O)cc3)c2N)cc1 [Compound 6, N-(3-(2-Amino-3-(4-methoxyphenoxy)phenyl)-3-oxopropyl)-4-hydroxybenzamide] | 66 |
